Broadly, the half-life is how long it takes for the measured level to halve. A high value points to slow decline. One may read the clearance as the rate of elimination divided by the concentration. A low value points to inefficient removal. As usually defined, the pIC50 is the IC50 on a negative log10 scale, so that one unit is a factor of ten.

The results in this text go back to publication PMC7876453, “Targeting Indoleamine 2,3-Dioxygenase in Cancer Models Using the Novel Small Molecule Inhibitor NTRC 3883-0” (Frontiers in Immunology, 2021).

Structures are written as SMILES. pIC50: −log10 of the molar value. Where two headings read alike, the source gives them in different places.

In one data set the target is T1, CYP3A4 (Homo sapiens, UniProt P08684).
T1 construct: purchased Promega V9920
The data set is described as follows: CYP3A4 inhibition (P450-Glo). The data set is classed as in vitro ADME. Particulars: 10 µM. Here is the method: (§1) Full-length recombinant human and mouse IDO1 were expressed in Escherichia coli with a hexahistidine tag at the N-terminus, and purified by affinity chromatography to > 95% purity, as described ([8]). Human and mouse TDO containing a C-terminal hexahistidine tag were analogously expressed and purified to > 95% purity ([8]). The inhibitory activity of compounds was determined with the NFK GreenScreen assay technology under the conditions as described ([8]), except for the reaction buffer for IDO1, which was replaced by 50 mM NaH2PO4, pH 7.0, supplemented with 0.01% Tween-20 and 1% glycerol. Inhibition of the CYP3A4 and CYP2D6 enzymes was determined with the P450-Glo™ Screening System with Luciferin-IPA (Promega, #V9920 and V9890). For determination of IC50 values, the effect of inhibitors was determined in 10-point duplicate dose-response curves. Graphs were fitted to a four-parameter logistics equation in XLfit (ID Business Solutions, Ltd., Guildford, UK) from which IC50 values were calculated.

A further data set addresses T2, CYP2D6 (Homo sapiens, UniProt P10635).
T2 construct: purchased Promega V9890
The data set is described as follows: CYP2D6 inhibition (P450-Glo). Format: in vitro ADME. Conditions: 10 µM. As for the experimental part: as §1

Data set [1] relates to cell lines used in this study. The data set is described as follows: cell viability assays (ATPlite 1Step). Particulars: in parallel with the cell-based assays.
Data set [2] in a line: in vivo pharmacokinetics, mouse. The arrangement: species or system male CD-1 mice. Conditions: male; for clearance / Vd: intravenous; for Vd: read-out: Vss. Here is the method: Pharmacokinetic properties of NTRC 3883-0 were determined in plasma following single oral (p.o.) and i.v. administration to male CD-1 mice (n = 6 per treatment group with three mice sampled per time point), Wistar rats (n = 3), cynomolgus monkey (n = 1) and Beagle dogs (n = 3). Formulations were prepared in DMSO, Kolliphor® EL, 5% D-mannitol in Elix water at a volume ratio of 1:1:8 for i.v. administration, and in 0.5% gelatin, 5% D-mannitol in Elix water for p.o. administration. Plasma samples were collected at eight to eleven time points up to 24 h after administration. Pharmacokinetic properties and required dosing in humans were predicted by allometric scaling by Karin Jorga Life Science Consulting (Basel, Switzerland) ( Figure S2 and Table S2 ).

Data set [3] relates to unstimulated adherent cell samples isolated from ascites of ovarian cancer patients. The data set is described as follows: Trp-catabolizing activity in unstimulated ascites cell samples. Conditions: for pIC50: Homo sapiens. The data set is classed as cell-based, human. Here is the method:
Ascites was collected from patients with a primary diagnosis of advanced epithelial ovarian cancer during paracentesis for diagnostics or symptom relieve, or during primary debulking surgery. Ascites was filtered and cells were collected by centrifugation as described ([23]). To enrich for tumor cells, ascites cell samples were allowed to adhere overnight to tissue culture plastic. The cell samples were then cultured for 2–3 weeks in advanced RPMI medium (ThermoFisher), supplemented with 10% FBS, 1% glutamax and 1% P/S, with 2 or 3 times passaging of the cells. qPCR analyses of the MUC16, HE4, IDO1, and TDO2 genes were performed for all samples as described above. Five samples which could be cultured over multiple passages were analyzed for cell surface expression of mucin-16 and EpCAM by flow cytometry using FITC-conjugated anti-mucin-16 (AssayPro, #32189-05141) and APC-conjugated anti-EpCAM (Miltenyi, #130-111-117, RRID: AB_2657496) to assure that the cell cultures consisted of malignant cells. IDO1 mRNA and protein levels in these samples were analyzed as described above after incubation with or without 200 ng/ml IFNγ for 24 h. The collection of ascites and the research described was conducted with approval of the medical ethical committee of the Radboud university medical center and informed written consent from each subject.

Another data set deals with B16F10-mIDO1 (Mus musculus, UniProt P28776). The data set is described as follows: cell-based assay, Trp-catabolizing activity in B16F10-mIDO1 cells.
Setting [4] is: CD-1, plasma, mouse, body weight 0.036 kg.

B16F10-mIDO1, sequence (P28776 whole entry): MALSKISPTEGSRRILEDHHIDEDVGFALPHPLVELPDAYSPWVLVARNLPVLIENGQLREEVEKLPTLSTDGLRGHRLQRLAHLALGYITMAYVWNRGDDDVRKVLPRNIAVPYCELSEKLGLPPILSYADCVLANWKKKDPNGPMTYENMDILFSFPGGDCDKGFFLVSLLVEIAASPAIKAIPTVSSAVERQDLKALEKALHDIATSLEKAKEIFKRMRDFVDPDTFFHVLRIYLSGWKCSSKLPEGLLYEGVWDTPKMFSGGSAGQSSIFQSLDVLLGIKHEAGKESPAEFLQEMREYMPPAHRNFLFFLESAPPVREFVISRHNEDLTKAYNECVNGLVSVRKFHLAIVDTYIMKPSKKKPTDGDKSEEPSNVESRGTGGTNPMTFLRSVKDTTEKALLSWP
T2 sequence (P10635 whole entry): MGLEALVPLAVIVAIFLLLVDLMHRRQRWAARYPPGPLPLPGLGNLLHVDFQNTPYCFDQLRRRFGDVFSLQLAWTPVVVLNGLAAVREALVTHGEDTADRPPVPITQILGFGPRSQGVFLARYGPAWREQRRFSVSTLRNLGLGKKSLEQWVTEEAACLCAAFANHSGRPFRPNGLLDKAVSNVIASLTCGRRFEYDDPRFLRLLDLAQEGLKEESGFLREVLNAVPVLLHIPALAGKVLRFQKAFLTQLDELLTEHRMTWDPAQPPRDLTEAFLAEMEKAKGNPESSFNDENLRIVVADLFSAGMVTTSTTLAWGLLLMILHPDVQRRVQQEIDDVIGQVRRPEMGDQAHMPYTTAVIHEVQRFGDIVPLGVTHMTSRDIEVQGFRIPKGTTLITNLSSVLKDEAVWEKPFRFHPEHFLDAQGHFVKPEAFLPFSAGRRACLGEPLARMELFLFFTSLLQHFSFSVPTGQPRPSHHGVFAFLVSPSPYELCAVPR
T1 sequence (P08684 whole entry): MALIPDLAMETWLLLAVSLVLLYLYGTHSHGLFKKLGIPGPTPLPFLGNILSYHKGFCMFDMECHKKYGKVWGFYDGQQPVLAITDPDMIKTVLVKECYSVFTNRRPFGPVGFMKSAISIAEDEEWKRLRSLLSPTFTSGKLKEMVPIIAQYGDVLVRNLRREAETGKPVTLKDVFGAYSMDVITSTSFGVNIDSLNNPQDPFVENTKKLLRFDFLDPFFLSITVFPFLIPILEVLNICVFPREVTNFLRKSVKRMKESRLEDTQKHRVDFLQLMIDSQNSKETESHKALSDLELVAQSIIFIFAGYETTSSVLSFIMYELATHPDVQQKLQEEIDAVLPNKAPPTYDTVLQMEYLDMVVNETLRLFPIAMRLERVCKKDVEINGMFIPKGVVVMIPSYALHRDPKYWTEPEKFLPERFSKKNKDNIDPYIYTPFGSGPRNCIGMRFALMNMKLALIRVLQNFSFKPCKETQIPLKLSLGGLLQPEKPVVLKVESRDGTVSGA

`O=C1CN(C(=O)c2c(F)cccc2F)[C@H](c2cccc(Br)c2)N1O` [NTRC 3883-0]: the “inhibition of CYP3A4 activity” value on CYP3A4 is on record as “did not inhibit”. The “inhibition of CYP2D6 activity” value against CYP2D6 was “did not inhibit”. In addition, the cytotoxicity entry in data set [1] is reported as “not cytotoxic”. The molecule also showed a half-life in data set [2] (CD-1, mouse, plasma) of 5.2 h. The clearance in data set [2] (CD-1, mouse, plasma) was 18.5 mL/min/kg; in data set [2] (setting [4]), 0.667 mL/min. Besides, the Vd in data set [2] (CD-1, mouse, plasma) was 3.63 L/kg; in data set [2] (setting [4]), 0.131 L. Moreover, the “inhibition of basal Trp-catabolizing activity (in words)” value in data set [3] is on record as “no or only minimal inhibition”. Besides, the pIC50 is less than 4.50 in data set [3] (mean of samples, read-out: IC50 Mean); less than 4.50 in data set [3] (read-out: IC50 ASC 010); less than 4.50 in data set [3] (read-out: IC50 ASC 013); less than 4.50 in data set [3] (read-out: IC50 ASC 031); less than 4.50 in data set [3] (read-out: IC50 ASC 041); 7.74 against B16F10-mIDO1. Further, on B16F10-mIDO1, the “times more potent compared to epacadostat in B16F10-mIDO1 assay” value is 5 times.
